Activity calls are given as the source filed them.
Tests used:
Wee1-like protein kinase = Wee1-like protein kinase (Homo sapiens, UniProt P30291); assay: Dose Response Cell-based Assay for Inhibitors of Wee1 Degradation. [Related pubchem assays: 1410, 1321 ]; format: functional
[1] = target: G2/mitotic-specific cyclin-B1 (Homo sapiens, UniProt P14635); assay: Counterscreen assay for inhibitors of Wee1 degradation: dose response cell-based assay to identify inhibitors of cyclin B degradation. [Related pubchem assays: 1410, 1321 ]; format: functional
[2] = target: Lysosomal acid glucosylceramidase (Homo sapiens, UniProt P04062); assay: Dose response cell-based high throughput screening assay to identify enhancers of beta-glucosidase activity. [Related pubchem assays: 784 ]; format: functional
Streptokinase A = target: T1, Streptokinase A (Streptococcus pyogenes serotype M1, UniProt P10520); assay: viability-normalized secreted streptokinase activity reduction – plasminogen activation absorbance, OD405, dose response (AID 1914); format: functional, Streptococcus pyogenes M1 GAS;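 further: secreted streptokinase activity via plasminogen activation per viability signal from cell pellet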
T1 sequence (P10520 whole entry): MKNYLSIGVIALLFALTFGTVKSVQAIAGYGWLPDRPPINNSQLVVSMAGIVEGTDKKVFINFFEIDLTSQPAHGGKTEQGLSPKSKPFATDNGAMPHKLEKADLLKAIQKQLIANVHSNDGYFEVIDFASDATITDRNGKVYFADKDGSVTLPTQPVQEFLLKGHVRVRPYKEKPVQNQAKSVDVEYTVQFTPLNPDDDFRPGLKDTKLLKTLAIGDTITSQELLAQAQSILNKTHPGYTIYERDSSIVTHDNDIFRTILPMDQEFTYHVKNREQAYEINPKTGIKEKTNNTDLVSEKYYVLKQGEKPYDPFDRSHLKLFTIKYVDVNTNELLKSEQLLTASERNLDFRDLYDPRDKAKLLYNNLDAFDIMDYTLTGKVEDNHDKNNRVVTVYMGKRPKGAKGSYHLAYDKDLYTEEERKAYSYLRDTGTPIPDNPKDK

Streptococcus [3] = assay: Luminescence Microorganism-Based Dose Response Follow up to Identify Compounds Cytotoxic to Streptococcus. [Related pubchem assays: 1677 (Project Summary), 1915, 1914, 1902 (Retest at Dose), 1900 (Counter Screen), 1662 (Primary HTS)]; format: functional, organism-based
[4] = test system: Streptococcus sp. 'group A'; assay: Streptococcus pyogenes SK(-)GAS viability under kanamycin – luminescence, BacTiterGlo, confirmation, counter-screen for streptokinase expression inhibitor project, dose response (AID 1900); format: functional, organism-based
Streptococcus [5] = assay: GAS UMAA2166 growth inhibition – luminescence, BacTiterGlo, counter-screen for streptokinase expression inhibitor project, dose response (AID 1915); format: functional, organism-based;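 further: potency for reduction of bacterial viability or growth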
[6] = target: T2, Alkaline phosphatase, tissue-nonspecific isozyme (Homo sapiens, UniProt P05186)
T2 sequence (P05186 whole entry): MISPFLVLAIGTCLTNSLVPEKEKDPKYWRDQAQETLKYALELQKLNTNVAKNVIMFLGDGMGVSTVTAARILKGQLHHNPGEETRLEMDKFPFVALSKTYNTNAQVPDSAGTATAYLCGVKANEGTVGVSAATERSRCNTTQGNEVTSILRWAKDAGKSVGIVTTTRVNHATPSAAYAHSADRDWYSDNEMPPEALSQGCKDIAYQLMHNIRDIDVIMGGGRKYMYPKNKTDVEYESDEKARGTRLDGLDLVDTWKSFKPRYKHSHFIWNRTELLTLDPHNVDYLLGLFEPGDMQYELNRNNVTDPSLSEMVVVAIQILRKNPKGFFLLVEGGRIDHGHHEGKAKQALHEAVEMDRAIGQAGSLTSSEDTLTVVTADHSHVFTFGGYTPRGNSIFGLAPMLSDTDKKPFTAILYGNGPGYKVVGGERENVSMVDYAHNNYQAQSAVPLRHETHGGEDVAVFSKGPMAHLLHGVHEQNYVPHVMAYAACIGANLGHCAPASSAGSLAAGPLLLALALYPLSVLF

[7] = M. tuberculosis growth inhibition, HTS (AID 449762); format: functional
[8] = target: T3, Neuropeptide Y receptor type 2 (Homo sapiens, UniProt P49146); assay: Fluorescence-based counterscreen for agonists of NPY-Y1: cell-based high-throughput dose response assay for agonists of NPY-Y2.; format: functional
T3 sequence (P49146 whole entry): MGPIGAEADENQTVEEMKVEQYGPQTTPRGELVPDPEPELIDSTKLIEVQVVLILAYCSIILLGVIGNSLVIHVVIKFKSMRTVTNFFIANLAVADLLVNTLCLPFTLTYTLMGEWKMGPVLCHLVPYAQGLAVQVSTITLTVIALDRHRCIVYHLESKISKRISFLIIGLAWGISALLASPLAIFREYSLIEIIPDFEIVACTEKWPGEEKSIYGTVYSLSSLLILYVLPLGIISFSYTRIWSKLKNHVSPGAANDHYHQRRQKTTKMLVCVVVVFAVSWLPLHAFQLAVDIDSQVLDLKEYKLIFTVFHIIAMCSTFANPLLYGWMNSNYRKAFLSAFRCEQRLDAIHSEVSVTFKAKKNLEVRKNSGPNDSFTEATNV

Estrogen receptor = target: T4, Estrogen receptor (Homo sapiens, UniProt P03372);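 further: potency for inhibiting coactivator peptide recruitment to the receptor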
T4 sequence (P03372 whole entry): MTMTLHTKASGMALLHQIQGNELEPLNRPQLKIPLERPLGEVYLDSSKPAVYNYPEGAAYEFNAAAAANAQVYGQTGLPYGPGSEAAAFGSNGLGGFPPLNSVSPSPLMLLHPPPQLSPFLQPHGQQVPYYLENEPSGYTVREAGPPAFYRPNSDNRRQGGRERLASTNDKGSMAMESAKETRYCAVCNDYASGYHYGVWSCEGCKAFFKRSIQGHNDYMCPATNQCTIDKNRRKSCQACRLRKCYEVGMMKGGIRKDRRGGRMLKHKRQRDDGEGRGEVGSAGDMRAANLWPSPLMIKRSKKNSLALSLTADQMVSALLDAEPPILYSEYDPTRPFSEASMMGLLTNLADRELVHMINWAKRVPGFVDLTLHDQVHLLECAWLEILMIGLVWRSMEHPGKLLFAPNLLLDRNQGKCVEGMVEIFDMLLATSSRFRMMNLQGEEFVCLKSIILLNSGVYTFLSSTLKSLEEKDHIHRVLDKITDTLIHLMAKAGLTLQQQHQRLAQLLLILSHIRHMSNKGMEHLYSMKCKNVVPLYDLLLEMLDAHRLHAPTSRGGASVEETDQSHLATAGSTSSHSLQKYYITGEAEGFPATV

[9] = target: T5, Neuropeptide Y receptor type 1 (Homo sapiens, UniProt P25929); assay: Fluorescence-based dose response cell-based high-throughput screening assay for agonists of NPY-Y1. [Related pubchem assays: 1697 (Screening assay (NPY-Y1 agonists).), 1359 (Screening assay (NPY-Y2 potentiators or agonists).), 1304 (Screening assay (NPY-Y1 potentiators or agonists).), 1704 (Screening assay (CNGC inhibitors).), 1791 (Summary AID.)]; format: functional
T5 sequence (P25929 whole entry): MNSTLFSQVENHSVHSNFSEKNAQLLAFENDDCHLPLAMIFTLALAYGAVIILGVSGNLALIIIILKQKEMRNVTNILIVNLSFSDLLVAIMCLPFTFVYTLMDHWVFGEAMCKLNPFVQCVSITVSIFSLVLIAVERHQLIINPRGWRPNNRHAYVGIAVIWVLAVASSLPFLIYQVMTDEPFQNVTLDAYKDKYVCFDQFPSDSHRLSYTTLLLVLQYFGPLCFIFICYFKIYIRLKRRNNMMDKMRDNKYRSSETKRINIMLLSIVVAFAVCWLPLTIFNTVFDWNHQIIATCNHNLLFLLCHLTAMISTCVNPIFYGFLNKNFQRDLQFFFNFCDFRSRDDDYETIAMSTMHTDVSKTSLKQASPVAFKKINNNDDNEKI

HEK293 [10] = assay: Fluorescence-based counterscreen for potentiators or agonists of NPY-Y1: cell-based high-throughput dose response assay for inhibitors of cyclic nucleotide gated ion channel (CNGC) activity. In this assay, the parental HEK293 cell line transfected with a cyclic-nucleotide gated ion channel (CNGC)-based cAMP sensor is used to measure inhibition of isoproterenol-induced CNGC …; format: functional; conditions: Homo sapiens
cells = format: functional, cell-based
[11] = luciferase reporter signal suppression in cells – H4 neuroglioma cells, luminescence, dose response (AID 1990); format: functional, cell-based
Aminopeptidase N = target: T6, Aminopeptidase N (Plasmodium falciparum FcB1/Columbia, UniProt O96935); assay: malaria alanyl aminopeptidase activity blockers – biochemical, fluorogenic H-Leu-NHMec substrate, 1536-well (AID 1445); parameters: species or system Plasmodium falciparum 3D7, 3D7
T6 sequence (O96935 whole entry): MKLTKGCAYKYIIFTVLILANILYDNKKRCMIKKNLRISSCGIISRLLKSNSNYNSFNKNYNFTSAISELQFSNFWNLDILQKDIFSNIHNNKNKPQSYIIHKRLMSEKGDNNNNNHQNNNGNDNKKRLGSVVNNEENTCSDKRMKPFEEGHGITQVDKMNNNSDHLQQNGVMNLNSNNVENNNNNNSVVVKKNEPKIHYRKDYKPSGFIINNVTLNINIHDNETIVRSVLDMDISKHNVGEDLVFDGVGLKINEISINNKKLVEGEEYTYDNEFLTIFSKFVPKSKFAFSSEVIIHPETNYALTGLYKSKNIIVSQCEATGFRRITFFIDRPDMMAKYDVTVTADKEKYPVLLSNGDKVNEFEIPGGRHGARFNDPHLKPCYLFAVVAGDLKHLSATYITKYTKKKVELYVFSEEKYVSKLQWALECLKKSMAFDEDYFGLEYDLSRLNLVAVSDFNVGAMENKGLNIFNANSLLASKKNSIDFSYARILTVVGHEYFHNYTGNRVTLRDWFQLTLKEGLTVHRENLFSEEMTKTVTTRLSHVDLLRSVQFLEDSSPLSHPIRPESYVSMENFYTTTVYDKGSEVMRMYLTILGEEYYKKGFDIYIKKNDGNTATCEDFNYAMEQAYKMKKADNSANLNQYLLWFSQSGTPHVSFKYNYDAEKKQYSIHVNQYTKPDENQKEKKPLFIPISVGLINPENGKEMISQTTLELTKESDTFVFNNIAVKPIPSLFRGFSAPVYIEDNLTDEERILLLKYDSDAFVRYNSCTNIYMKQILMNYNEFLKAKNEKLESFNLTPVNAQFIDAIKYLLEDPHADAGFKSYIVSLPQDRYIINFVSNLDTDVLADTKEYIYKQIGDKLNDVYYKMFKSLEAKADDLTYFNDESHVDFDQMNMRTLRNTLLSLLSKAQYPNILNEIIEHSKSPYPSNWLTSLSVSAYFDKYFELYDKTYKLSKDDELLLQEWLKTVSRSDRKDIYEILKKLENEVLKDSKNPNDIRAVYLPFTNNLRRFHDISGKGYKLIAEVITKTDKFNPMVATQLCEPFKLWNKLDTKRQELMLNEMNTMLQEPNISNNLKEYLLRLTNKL

BJ [12] = assay: BJ-TERT-LT-ST fibroblast viability loss – cell-based, RAS-independent, luminescence, dose response (AID 1935); format: functional; conditions: Homo sapiens;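 further: BJ fibroblasts immortalized with TERT plus LT and ST oncogenes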
BJ [13] = assay: cells; format: functional, cell-based; conditions: Homo sapiens
[14] = alpha-synuclein stem-loop luciferase translation blockers – H4 neuroglioma cells, luminescence, confirmation (AID 1988); format: functional, cell-based
HEK293 [15] = assay: EBV LMP1 TES2 canonical NF-kB signalling blockers – cell-based, HEK293, luciferase, cherry-pick, dose response (AID 588343); format: functional; conditions: Homo sapiens
BJ [16] = assay: growth inhibition of engineered Ras-driven BJ cells – cell-based, alamar blue fluorescence, cherrypicked samples, dose response (AID 2631); format: functional; conditions: Homo sapiens;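 further: confirmatory dose-response assay in RAS-dependent BJ fibroblasts engineered with TERT, LT and ST, with cytotoxicity read by fluorescence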
BJ [17] = assay: BJ-TERT fibroblast viability loss – cell-based, RAS-independent, luminescence, dose response (AID 1933); format: functional; conditions: Homo sapiens
[18] = Luminescence Cell-Based Dose Response HTS to Identify Inhibitors of 5'UTR Stem-Loop Driven Prion Protein mRNA Translation in H4 Neuroglioblastoma Cells. [Related pubchem assays: 1827 (Project Summary), 1813 (Primary HTS)]; format: functional
[19] = Luminescence-based dose response cell-based high throughput screening assay for cytotoxic compounds using the IEC-6 intestinal epithelial cell line. [Related pubchem assays: 1858 (Summary AID.), 1825 (Counterscreen.), 1907 (Confirmation screen.)]; format: functional
[20] = alpha-synuclein stem-loop translation blockers – luminescence, H4 neuroglioblastoma cells, dose confirmation, confirmation (AID 2454); format: functional, cell-based;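 further: H4 neuroglioblastoma cells carrying an alpha-synuclein 5'UTR luciferase reporter; potency for inhibition of the luciferase signal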
[21] = luciferase reporter signal reduction – luminescence, H4-C neuroglioblastoma cells, dose response (AID 2458); format: functional, cell-based;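 further: H4 neuroglioblastoma cells stably carrying a luciferase reporter gene fusion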
Cytochrome P450 3A4 = Cytochrome P450 3A4 (Homo sapiens, UniProt P08684); conditions: Potency;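 further: confirmatory qHTS run detecting inhibitors and substrates of CYP3A4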
Cytochrome P450 2D6 = Cytochrome P450 2D6 (Homo sapiens, UniProt P10635); assay: qHTS Assay for Inhibitors and Substrates of Cytochrome P450 2D6. [Related pubchem assays: 410 ]; format: ADME; conditions: read-out: Potency
Cytochrome P450 2D6, sequence (P10635 whole entry): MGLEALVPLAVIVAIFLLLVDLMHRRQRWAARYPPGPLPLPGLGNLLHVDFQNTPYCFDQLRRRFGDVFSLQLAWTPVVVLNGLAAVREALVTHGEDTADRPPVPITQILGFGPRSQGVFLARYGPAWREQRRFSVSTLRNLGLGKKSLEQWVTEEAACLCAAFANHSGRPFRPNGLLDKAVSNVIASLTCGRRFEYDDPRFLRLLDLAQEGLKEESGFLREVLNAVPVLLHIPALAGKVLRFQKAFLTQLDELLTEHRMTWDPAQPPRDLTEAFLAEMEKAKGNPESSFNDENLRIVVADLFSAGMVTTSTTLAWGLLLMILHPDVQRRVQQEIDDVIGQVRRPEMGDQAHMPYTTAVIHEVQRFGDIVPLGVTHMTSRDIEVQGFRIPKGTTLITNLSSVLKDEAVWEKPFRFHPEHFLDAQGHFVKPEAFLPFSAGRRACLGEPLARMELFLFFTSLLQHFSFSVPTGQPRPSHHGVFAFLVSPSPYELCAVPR

Wee1-like protein kinase, sequence (P30291 whole entry): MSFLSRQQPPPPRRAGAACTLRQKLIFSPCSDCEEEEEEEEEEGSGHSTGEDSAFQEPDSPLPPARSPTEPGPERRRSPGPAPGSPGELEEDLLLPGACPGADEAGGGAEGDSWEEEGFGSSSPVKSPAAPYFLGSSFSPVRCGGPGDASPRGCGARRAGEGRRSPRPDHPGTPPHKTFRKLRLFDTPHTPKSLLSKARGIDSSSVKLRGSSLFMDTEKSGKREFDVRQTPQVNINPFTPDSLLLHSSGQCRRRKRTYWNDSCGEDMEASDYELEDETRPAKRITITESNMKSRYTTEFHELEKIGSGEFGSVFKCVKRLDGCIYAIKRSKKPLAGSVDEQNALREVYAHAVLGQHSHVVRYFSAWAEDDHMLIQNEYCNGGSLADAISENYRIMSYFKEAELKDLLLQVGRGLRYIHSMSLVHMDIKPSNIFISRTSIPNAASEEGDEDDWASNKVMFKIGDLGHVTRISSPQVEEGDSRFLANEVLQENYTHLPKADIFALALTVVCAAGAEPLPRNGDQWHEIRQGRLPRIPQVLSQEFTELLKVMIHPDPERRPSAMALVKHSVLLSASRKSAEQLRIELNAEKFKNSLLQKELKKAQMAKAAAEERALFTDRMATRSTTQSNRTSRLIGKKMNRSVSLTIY
G2/mitotic-specific cyclin-B1, sequence (P14635 whole entry): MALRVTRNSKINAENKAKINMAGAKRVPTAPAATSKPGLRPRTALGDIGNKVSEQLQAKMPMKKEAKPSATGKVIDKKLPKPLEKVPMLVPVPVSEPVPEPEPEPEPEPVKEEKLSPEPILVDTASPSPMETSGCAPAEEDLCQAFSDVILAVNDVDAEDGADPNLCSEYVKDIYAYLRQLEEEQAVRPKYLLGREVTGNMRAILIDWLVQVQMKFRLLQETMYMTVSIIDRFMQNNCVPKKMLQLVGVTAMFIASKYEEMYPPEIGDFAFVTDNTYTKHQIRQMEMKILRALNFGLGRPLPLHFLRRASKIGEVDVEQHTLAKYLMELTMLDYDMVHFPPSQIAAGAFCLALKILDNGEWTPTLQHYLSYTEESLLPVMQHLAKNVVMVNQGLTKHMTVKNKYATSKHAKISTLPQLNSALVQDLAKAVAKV
Cytochrome P450 3A4, sequence (P08684 whole entry): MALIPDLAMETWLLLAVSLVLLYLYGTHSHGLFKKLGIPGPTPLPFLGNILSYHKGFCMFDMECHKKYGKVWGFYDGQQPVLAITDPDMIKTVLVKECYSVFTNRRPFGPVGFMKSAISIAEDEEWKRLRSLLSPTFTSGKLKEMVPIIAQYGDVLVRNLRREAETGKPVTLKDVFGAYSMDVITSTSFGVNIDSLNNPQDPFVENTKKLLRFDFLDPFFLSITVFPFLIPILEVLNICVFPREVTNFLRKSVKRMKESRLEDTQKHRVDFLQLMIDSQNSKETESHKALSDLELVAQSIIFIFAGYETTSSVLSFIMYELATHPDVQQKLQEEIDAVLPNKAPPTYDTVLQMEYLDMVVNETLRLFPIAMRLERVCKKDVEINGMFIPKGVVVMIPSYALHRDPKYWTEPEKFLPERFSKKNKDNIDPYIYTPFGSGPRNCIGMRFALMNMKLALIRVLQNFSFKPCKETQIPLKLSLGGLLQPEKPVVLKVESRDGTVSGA
Lysosomal acid glucosylceramidase, sequence (P04062 whole entry): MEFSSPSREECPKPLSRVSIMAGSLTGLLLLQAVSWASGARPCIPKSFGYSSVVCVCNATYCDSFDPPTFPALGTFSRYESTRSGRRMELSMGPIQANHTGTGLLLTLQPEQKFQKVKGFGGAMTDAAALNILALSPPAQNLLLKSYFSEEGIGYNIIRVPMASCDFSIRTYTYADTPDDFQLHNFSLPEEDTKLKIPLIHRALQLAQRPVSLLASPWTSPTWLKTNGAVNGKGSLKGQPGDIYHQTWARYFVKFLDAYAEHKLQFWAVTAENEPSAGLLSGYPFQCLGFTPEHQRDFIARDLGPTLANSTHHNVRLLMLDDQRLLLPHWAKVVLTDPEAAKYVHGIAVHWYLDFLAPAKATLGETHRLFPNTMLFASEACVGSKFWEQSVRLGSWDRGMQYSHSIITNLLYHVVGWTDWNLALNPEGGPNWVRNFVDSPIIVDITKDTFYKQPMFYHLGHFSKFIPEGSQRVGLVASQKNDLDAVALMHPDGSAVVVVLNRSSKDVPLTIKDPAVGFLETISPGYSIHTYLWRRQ

COc1ccc(Nc2oc(-c3ccc(OC)cc3)nc2C#N)cc1
EC50 (Wee1-like protein kinase): > 49.7 µM (not active) | EC50 [1]: > 49.7 µM (not active)

O=S(=O)(NCc1csc(-c2cccnc2)n1)c1ccc2c(c1)OCCO2
EC50 [2]: > 50 µM (not active)

CCOc1ccc(Cl)cc1S(=O)(=O)n1cnc2cc(C)c(C)cc21
EC50 (Streptokinase A): 7.31 µM (active) | EC50 (Streptococcus [3]): > 500 µM (not active) | EC50 [4]: 23.8 µM (active) | EC50 (Streptococcus [5]): > 150 µM (not active)

CCCCNC(=O)CSc1nc2cc3c(cc2c(=O)n1CCC(=O)NCCc1ccc(OC)c(OC)c1)OCO3
EC50 [6]: > 100 µM (not active)

CCn1c(SCC(=O)Nc2ccc3c(c2)oc2ccccc23)nnc1-c1ccc(N)cc1
IC50 [7]: > 100 µM (active) | EC50 [8]: 7.96 µM (active) | IC50 (Estrogen receptor): 11.7 µM (active) | EC50 [9]: 7.16 µM (active) | IC50 (HEK293 [10]): 2.88 µM (active)

Cc1nc(N)nc(N)c1/C=C/C(C)(C)c1ccc(Cl)cc1
EC50 (cells): 0.012 µM (active) | EC50 [11]: < 0.1 µM (active) | IC50 (Aminopeptidase N): 66.2 µM (active) | EC50 (BJ [12]): > 150 µM (inconclusive) | EC50 (BJ [13]): < 0.12 µM (active) | EC50 [14]: < 0.1 µM (active) | AC50 (HEK293 [15]): 0.0458 µM (active) | EC50 (BJ [16]): > 133 µM (inactive) | EC50 (BJ [17]): 15.9 µM (active) | EC50 [18]: < 0.1 µM (active) | IC50 [19]: > 0.00202 µM (active) | EC50 [20]: < 0.001 µM (active) | EC50 [21]: 0.009 µM (active)

COc1cccc2[nH]c(-c3ccccn3)nc12
AC50 (Cytochrome P450 3A4): 3.98 µM (inconclusive) | AC50 (Cytochrome P450 2D6): 1.58 µM (inconclusive)

— ChEMBL document CHEMBL1201862, “PubChem BioAssay data set” (2004)
